≈ marks a conversion by molar mass, not a printed value.
How the values were obtained:
Format in all cases: physicochemical
[1] = Particle size analysis of crystals by microscopy (Reference Example)
Method: Various properties of Nor-UDCA synthesized according to Schteingart and Hofmann (1988) Journal of Lipid Research Vol. 29(10), […] were investigated.
The particle size of the crystals obtained was analyzed by microscopy. […] This particle size distribution is not suitable for the intended pharmaceutical preparation. Milling/micronization is not desired as this would result in a reduction of the polymorphic purity and/or of the thermodynamic stability of the Nor-UDCA.

[2] = Polymorph screen: relative stability of forms by XRPD re-analysis after storage; details: for Stability by XRPD (form found on XRPD re-analysis after storage): storage at ambient conditions
Method: (§1) The polymorph screening study was carried out in two phases. In Phase 1, the synthesized Nor-UDCA, designated Form A, was characterised by XRPD, digital imaging, thermal analysis (DSC and TGMS). The purity of the material was checked by HPLC/RI. A qualitative solubility determination with 20 solvents was carried out in order to fit the data for the selection of the crystallization solvents to be employed in the polymorph screen. Additionally, the solids recovered by evaporation of solutions used in the solubility experiments were analyzed by XRPD and digital imaging to obtain information on the potential form formation of new forms of Nor-UDCA (see Table 2). Grinding tests were conducted in order to support the definition of the experimental space for this crystallization mode. Amorphous material to be used as starting material was intentionally produced by freeze-drying from 1,4-dioxane/water (95/5%) solution and by grinding (ball-milling) for “cooling/evaporation and vapour diffusion into solids experiments”. In Phase 2, 217 experiments divided across different crystallization modes were performed. The applied crystallization modes were: • Combined cooling/evaporative crystallization experiments starting with amorphous material • Crystallization with forward anti-solvent addition • Slurry experiments at two temperatures • Vapour diffusion into solutions • Vapour diffusion onto amorphous solids • Crystallization by grinding with 24 solvents and one dry.
Upon completion of the experiments, XRPD and digital images analyses were performed on all crystallized solids.

[3] = Particle size determination by laser diffraction; details: dry method, Malvern
Excerpt: The particle size distribution can be determined as described herein in Example 3 and/or according the European Pharmacopeia (Ph. Eur.), edition 6.8. section 2.9.31, preferably with a Mastersizer 2000 by Malvern instruments. The evaluation is typically carried out by the Fraunhofer model.
The precipitation of the free acid leads to Nor-UDCA particles of a consistent and defined size distribution. Micronization by milling in order to control the crystal size of Nor-UDCA can be avoided.

[4] = Qualitative solubility determination of Nor-UDCA with 20 solvents; details: thermodynamic from solid
Method: as §1

## C[C@H](CC(=O)O)[C@H]1CC[C@H]2[C@@H]3[C@@H](O)C[C@@H]4C[C@H](O)CC[C@]4(C)[C@H]3CC[C@]12C
[1]
  Median particle size (50% of the crystals this size or less): 13.37 μm
  Particle size that 60% of the crystals have or less: 15.64 μm
  Particle size that 95% of the particles have or less: 46.64 μm
  Share of particles with a particle size of 10 μm or less: Less than 30%

## C[C@H](CC(=O)O)[C@H]1CC[C@H]2[C@@H]3[C@@H](O)C[C@@H]4C[C@H](O)CC[C@]4(C)[C@H]3CC[C@]12C [Form B]
[2]; stored at ambient conditions in well and experimental vial
  Time to conversion to Form A (XRPD re-analysis): ≤ 10 days

## C[C@H](CC(=O)O)[C@H]1CC[C@H]2[C@@H]3[C@@H](O)C[C@@H]4C[C@H](O)CC[C@]4(C)[C@H]3CC[C@]12C [Form C2]
[2]
  Stability by XRPD (form found on XRPD re-analysis after storage): Form A

## CC(CC(=O)O)[C@H]1CCC2[C@H]3C(CC[C@@]21C)[C@@]1(C)CCC(O)C[C@H]1C[C@@H]3O (stereo partly drawn) [Nor-UDCA, 3α,7β-dihydroxy-24-nor-5β-cholan-23oic acid]
[2]; polymorph screening study
  Thermodynamic stability of the crystalline form: thermodynamically stable
[2]
  Stability by XRPD (form found on XRPD re-analysis after storage): Form A
[3]; listed as Batch 40019721
  Particle size D(v, 0.5): 6.4 μm
[3]; listed as Batch 40019898
  Particle size D(v, 0.5): 5.4 μm
[3]; listed as Batch 40019902
  Particle size D(v, 0.5): 6.7 μm
[4]; dichloromethane, organic solvent or mixture, solvent Dichlormethane
  solubility: < 13 mg/mL
[4]; organic solvent or mixture, solvent 1,2-Dimethoxyethane
  solubility: < 14 mg/mL
[4]; organic solvent or mixture, solvent 1,2-Ethanediol
  solubility: < 14 mg/mL
[4]; organic solvent or mixture, solvent 1,4-Dioxane
  solubility: 21 mg/mL (≈ 55.5 mM)
[4]; organic solvent or mixture, solvent 2,2,2-Trifluoroethanol
  solubility: 21 mg/mL (≈ 55.5 mM)
[4]; organic solvent or mixture, solvent 2-Butanone
  solubility: < 14 mg/mL
[4]; organic solvent or mixture, solvent Acetone
  solubility: < 14 mg/mL
[4]; organic solvent or mixture, solvent Acetonitrile
  solubility: < 13 mg/mL
[4]; organic solvent or mixture, solvent Chloroform
  solubility: < 14 mg/mL
[4]; organic solvent or mixture, solvent Cyclohexane
  solubility: < 14 mg/mL
[4]; organic solvent or mixture, solvent Dimethylsulfoxide
  solubility: 207 mg/mL (≈ 547 mM)
[4]; organic solvent or mixture, solvent Methanol
  solubility: 70 mg/mL (≈ 185 mM)
[4]; organic solvent or mixture, solvent N-Methyl-2-pyrrolidone
  solubility: 404 mg/mL (≈ 1070 mM)
[4]; organic solvent or mixture, solvent Nitrobenzene
  solubility: < 13 mg/mL
[4]; organic solvent or mixture, solvent Nitromethane
  solubility: < 13 mg/mL
[4]; organic solvent or mixture, solvent Pentane
  solubility: < 13 mg/mL
[4]; organic solvent or mixture, solvent Toluene
  solubility: < 12 mg/mL
[4]; tert-butyl methyl ether, organic solvent or mixture, solvent Tert-butylmethylether
  solubility: < 13 mg/mL
[4]; tetrahydrofuran, organic solvent or mixture, solvent Tetrhydrofurane
  solubility: 41 mg/mL (≈ 108 mM)
[4]; solvent Water
  solubility: < 12 mg/mL
